In patent US20230118688A1, “1H-PYRAZOLO[4,3-d]PYRIMIDINE COMPOUNDS AS TOLL-LIKE RECEPTOR 7 (TLR7) AGONISTS” (BRISTOL-MYERS SQUIBB COMPANY, priority 2020, published 2023) one finds EC50 data, which are given here for 17 compounds.

Assay [1] has as its target T1, human TLR7 (Homo sapiens, UniProt Q9NYK1).
T1 construct: host or cells: HEK-Blue TLR7 cells (engineered human embryonic kidney cells)
T1 sequence (Q9NYK1 27-1049): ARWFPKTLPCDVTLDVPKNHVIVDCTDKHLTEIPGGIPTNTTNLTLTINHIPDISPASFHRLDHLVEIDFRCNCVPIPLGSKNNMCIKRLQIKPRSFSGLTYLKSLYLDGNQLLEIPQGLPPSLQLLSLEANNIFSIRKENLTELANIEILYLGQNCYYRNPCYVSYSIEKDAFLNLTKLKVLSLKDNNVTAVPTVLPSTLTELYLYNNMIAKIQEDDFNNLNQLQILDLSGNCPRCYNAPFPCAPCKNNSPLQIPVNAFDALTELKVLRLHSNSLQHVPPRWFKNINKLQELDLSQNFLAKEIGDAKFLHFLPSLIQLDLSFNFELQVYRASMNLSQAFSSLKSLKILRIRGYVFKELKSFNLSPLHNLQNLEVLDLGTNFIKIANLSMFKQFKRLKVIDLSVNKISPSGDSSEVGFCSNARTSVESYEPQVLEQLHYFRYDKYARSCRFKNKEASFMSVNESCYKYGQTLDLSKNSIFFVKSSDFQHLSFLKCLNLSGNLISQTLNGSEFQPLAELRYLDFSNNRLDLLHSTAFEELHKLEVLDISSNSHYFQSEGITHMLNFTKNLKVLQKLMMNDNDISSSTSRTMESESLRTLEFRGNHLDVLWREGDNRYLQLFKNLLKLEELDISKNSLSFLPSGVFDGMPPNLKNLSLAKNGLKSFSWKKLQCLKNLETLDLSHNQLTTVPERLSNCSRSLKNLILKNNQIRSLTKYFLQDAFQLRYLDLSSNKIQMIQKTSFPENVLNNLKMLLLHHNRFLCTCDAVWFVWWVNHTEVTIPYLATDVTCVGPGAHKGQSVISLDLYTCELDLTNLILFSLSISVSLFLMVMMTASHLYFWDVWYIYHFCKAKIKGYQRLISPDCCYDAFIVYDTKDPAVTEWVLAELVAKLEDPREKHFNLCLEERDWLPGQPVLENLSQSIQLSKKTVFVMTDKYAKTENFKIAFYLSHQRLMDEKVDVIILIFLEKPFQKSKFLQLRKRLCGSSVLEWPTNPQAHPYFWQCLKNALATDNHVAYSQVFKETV
Nature of the assay: Human TLR7 agonist activity reporter assay (HEK-Blue TLR7 cells, SEAP reporter). It counts as cell-based. Conditions: 18 h treatment, average where assay repeated, Table A1, read-out: hTLR7 Agonism EC50. The procedure: This procedure describes a method for assaying human TLR7 (hTLR7) agonist activity of the compounds disclosed in this specification.
HEK-Blue™ TLR7 cells were added to each well of a 384-well tissue-culture plate (15,000 cells per well) and incubated 16-18 h at 37° C., 5% CO2. Compounds (100 nl) were dispensed into wells containing the HEK-Blue™ TLR cells and the treated cells were incubated at 37° C., 5% CO2. After 18 h treatment ten microliters of freshly-prepared Quanti-Blue™ reagent (Invivogen) was added to each well, incubated for 30 min (37° C., 5% CO2) and SEAP levels measured using an Envision plate reader (OD=620 nm). The half maximal effective concentration values (EC50; compound concentration which induced a response halfway between the assay baseline and maximum) were calculated.
In general terms: In a reporter assay the amount or activity of a reporter protein is the signal.

Assay [2] relates to CD69. Nature of the assay: Induction of CD69 in human whole blood. It counts as cell-based. Conditions: 17 h, CD69 surface staining, 100% set to 1 uM resiquimod, average where assay repeated, Table A1, read-out: hWB CD69 EC50. On the procedure:
The induction of Type I interferon (IFN) MX-1 genes and the B-cell activation marker CD69 are downstream events that occur upon activation of the TLR7 pathway. The following is a human whole blood assay that measures their induction in response to a TLR7 agonist.
Heparinized human whole blood was harvested from human subjects and treated with test TLR7 agonist compounds at 1 mM. The blood was diluted with RPMI 1640 media and Echo was used to predot 10 nL per well giving a final concentration of 1 uM (10 nL in 10 uL of blood). After mixing on a shaker for 30 sec, the plates were covered and placed in a 37° C. chamber for o/n=17 hrs. Fixing/lysis buffer was prepared (5×->1× in H2O, warm at 37° C.; Cat #BD 558049) and kept the perm buffer (on ice) for later use.
For surface markers staining (CD69): prepared surface Abs: 0.045 ul hCD14-FITC (ThermoFisher Cat #MHCD1401)+0.6 ul hCD19-ef450 (ThermoFisher Cat #48-0198-42)+1.5 ul hCD69-PE (cat #BD555531)+0.855 ul FACS buffer. Added 3 ul/well, spin1000 rpm for 1 min and mixed on shaker for 30 sec, put on ice for 30 mins. Stop stimulation after 30 minutes with 70 uL of prewarmed 1× fix/lysis buffer and use Feliex mate to resuspend (15 times, change tips for each plate) and incubate at 37C for 10 minutes.
Centrifuge at 2000 rpm for 5 minutes aspirate with HCS plate washer, mix on shaker for 30 sec and then wash with 70 uL in dPBS and pelleted 2×s (2000 rpm for 5 min) and 50 ul wash in FACS buffer pelleted 1×s(2000 rpm for 5 min). Mix on shaker for 30 sec. For Intracellular markers staining (MX-1): Add 50 ul of BD Perm buffer III and mix on shaker for 30 sec. Incubate on ice for 30 minutes (in the dark). Wash with 50 uL of FACS buffer 2× (spin @2300 rpm×5 min after perm) followed by mixing on shaker for 30 sec. Resuspended in 20 ul of FACS buffer containing MX1 antibody ( ) (4812)-Alexa 647: Novus Biologicals #NBP2-43704AF647) 20 ul FACS bf+0.8 ul hlgG+0.04 ul MX-1. Spin 1000 rpm for 1 min, mix on shaker for 30se and the samples were incubated at RT in the dark for 45 minutes followed by washing 2×FACS buffer (spin @2300 rpm×5 min after perm). Resuspend 20 ul (35 uL total per well) of FACS buffer and cover with foil and place in 4° C. to read the following day. Plates were read on iQuePlus. The results were loaded into toolset and IC50 curves are generated in curve master. The y-axis 100% is set to 1 uM of resiquimod.

Each structure is given as a SMILES string. A value given as a limit tells only on which side of the number the result lay.

As a reminder, the EC50 is the concentration at which the effect is half-maximal.

For the compound `CCCCNc1nc(N)nc2cnn(Cc3cc(CN4CCCN(C)CC4)ccc3OC)c12` [Compound 131, N7-butyl-1-({2-methoxy-5-[(4-methyl-1,4-diazepan-1-yl)methyl]phenyl}methyl)-1H-pyrazolo[4,3-d] pyrimidine-5,7-diamine], the concentration for a half-maximal effect (EC50) in assay [1] is 0.112 µM; in assay [2], 0.0859 µM.

On to `CCCCNc1nc(N)nc2cnn(Cc3cc(CNC)ccc3OC)c12` [Compound 132, N7-butyl-1-(2-methoxy-5-((methylamino)methyl)benzyl)-1H-pyrazolo[4,3-d]pyrimidine-5,7-diamine], for which the concentration giving a half-maximal response (EC50) in assay [1] stood at 0.187 µM; in assay [2] it was 0.0109 µM.

For `CCCCNc1nc(N)nc2cnn(Cc3cc(CN(C)CCN(C)C)ccc3OC)c12` [Compound 133, N7-butyl-1-{[5-({[2-(dimethylamino)ethyl](methyl)-amino}methyl)-2-methoxy-phenyl]methyl}-1H-pyrazolo [4,3-d]pyrimidine-5,7-diamine], the EC50 in assay [1] stood at 0.176 µM; in assay [2], 0.017 µM.

As for `CCCCNc1nc(N)nc2cnn(Cc3cc(CN4CCNCC4)ccc3OC)c12` [Compound 134, N7-butyl-1-({2-methoxy-5-[(piperazin-1-yl)methyl]-phenyl}methyl)-1H-pyrazolo[4,3-d]pyrimidine-5,7-diamine], the EC50 was found to be 0.201 µM in assay [1] and 0.0625 µM in assay [2].

Consider `CCCCNc1nc(N)nc2cnn(Cc3cc(CNC(=O)CN(C)C)ccc3OC)c12` [Compound 136, N-[(3-{[5-amino-7-(butyl-amino)-1H-pyrazolo[4,3-d]pyrimidin-1-yl]methyl}-4-methoxyphenyl)methyl]-2-(dimethylamino)acetamide], for which the EC50 is 0.0511 µM in assay [1] and 0.0191 µM in assay [2].

Turning to `CCCCNc1nc(N)nc2cnn(Cc3cc(CN4CC(N(C)C)C4)ccc3OC)c12` [Compound 137, N7-butyl-1-[(5-{[3-(dime-thylamino)azetidin-1-yl]-methyl}-2-methoxyphenyl)methyl]-1H-pyrazolo-[4,3-d]pyrimidine-5,7-diamine], the EC50 was 0.114 µM in assay [1] and 0.0281 µM in assay [2].

On to `CCCCNc1nc(N)nc2cnn(Cc3cc(CN4CCN(C(=O)C5CCC5)CC4)ccc3OC)c12` [Compound 138, N7-butyl-1-({5-[(4-cyclo-butanecarbonylpiperazin-1-yl)methyl]-2-methoxy-phenyl}methyl)-1H-pyrazolo-[4,3-d]pyrimidine-5,7-diamine], for which the figures for the half-maximal effective concentration (EC50) in assay [1] and in assay [2] were 2.07 µM and not below 1 µM, respectively.

In the case of `CCCCNc1nc(N)nc2cnn(Cc3cc(COC)ccc3OC)c12` [Compound 139, N7-butyl-1-{[2-methoxy-5-(methoxymethyl)phenyl]-methyl}-1H-pyrazolo[4,3-d]pyrimidine-5,7-diamine], the EC50 worked out at 0.331 µM in assay [1] and 0.894 µM in assay [2].

Turning to `CCCCNc1nc(N)nc2cnn(Cc3cc(CO)ccc3OC)c12` [Compound 140, (3-((5-amino-7-(butylamino)-1H-pyrazolo[4,3-d]pyrimidin-1-yl)methyl)-4-methoxyphenyl)methanol], the results for the half-maximal effective concentration (EC50) in assay [1] and in assay [2] were 0.0275 µM and 0.135 µM, respectively.

Consider `CCCCNc1nc(N)nc2cnn(Cc3cc(COC4COC4)ccc3OC)c12` [Compound 141, N7-butyl-1-({2-methoxy-5-[(oxetan-3-yloxy)me-thyl]phenyl}methyl)-1H-pyrazolo[4,3-d]pyrimidine-5,7-diamine], for which the 50% effective concentration (EC50) in assay [1] is 0.498 µM; in assay [2], 0.831 µM.

In the case of `CCCCNc1nc(N)nc2cnn(Cc3cc(COCCCO)ccc3OC)c12` [Compound 143, 3-[(3-{[5-amino-7-(butyl-amino)-1H-pyrazolo[4,3-d]pyrimidin-1-yl]methyl}-4-methoxyphenyl)-methoxy]propan-1-ol], the figures for the EC50 in assay [1] and in assay [2] were 0.424 µM and 0.725 µM, respectively.

Consider `CCCCNc1nc(N)nc2cnn(Cc3cc(COCCC(C)(C)O)ccc3OC)c12` [Compound 144, 4-[(3-{[5-amino-7-(butyl-amino)-1H-pyrazolo[4,3-d]pyrimidin-1-yl]methyl}-4-methoxyphenyl)methoxy]-2-methylbutan-2-ol], for which the EC50 is 0.562 µM in assay [1] and not below 1 µM in assay [2].

For the compound `CCCCNc1nc(N)nc2cnn(Cc3cc(C#N)ccc3OC)c12` [Compound 145, 3-{[5-amino-7-(butyl-amino)-1H-pyrazolo[4,3-d]pyrimidin-1-yl]methyl}-4-methoxybenzonitrile], the EC50 in assay [1] stood at 0.402 µM; in assay [2] it was 0.942 µM.

Consider `CCCCNc1nc(N)nc2cnn(Cc3cc(CN(C)C(=O)CCOC)ccc3OC)c12` [Compound 146, N-[(3-{[5-amino-7-(butyl-amino)-1H-pyrazolo[4,3-d]pyrimidin-1-yl]methyl}-4-methoxyphenyl)methyl]-3-methoxy-N-methylpropanamide], for which the EC50 is 0.499 µM in assay [1] and not below 1 µM in assay [2].

As to `CCCCNc1nc(N)nc2cnn(Cc3cc(CN(C)C(=O)CCO)ccc3OC)c12` [Compound 147, N-[(3-{[5-amino-7-(butyl-amino)-1H-pyrazolo[4,3-d]pyrimidin-1-yl]methyl}-4-methoxyphenyl)methyl]-3-hydroxy-N-methylpropanamide], the EC50 in assay [1] is 0.17 µM; in assay [2] it was 0.455 µM.

On to `CCCCNc1nc(N)nc2cnn(Cc3cc(CN(C)C(=O)CC(C)(C)O)ccc3OC)c12` [Compound 148, N-[(3-{[5-amino-7-(butyl-amino)-1H-pyrazolo[4,3-d]pyrimidin-1-yl]methyl}-4-methoxyphenyl)methyl]-3-hydroxy-N,3-dimethyl-butanamide], for which the EC50 was 0.665 µM in assay [1] and not below 1 µM in assay [2].

`COc1ccc(CN2CC(OC)C2)cc1Cn1ncc2nc(N)nc(NCC3CC4(CC4)C3)c21` [Compound 149, 1-({2-methoxy-5-[(3-methoxyazetidin-1-yl)methyl]-phenyl}methyl)-N7-({spiro-[2.3]hexan-5-yl}methyl)-1H-pyrazolo[4,3-d]pyrimidine-5,7-diamine]: the values for the EC50 in assay [1] and in assay [2] were 0.271 µM and 0.525 µM, respectively.
